Literature values, collected in paper PMC9549396 (Proceedings of the National Academy of Sciences of the …, 2022).

Molecular target: PI3KC2β (Homo sapiens, UniProt O00750)
Test: lipid kinase activity inhibition
Assay type: biochemical

Chain of PI3KC2β (O00750 whole entry): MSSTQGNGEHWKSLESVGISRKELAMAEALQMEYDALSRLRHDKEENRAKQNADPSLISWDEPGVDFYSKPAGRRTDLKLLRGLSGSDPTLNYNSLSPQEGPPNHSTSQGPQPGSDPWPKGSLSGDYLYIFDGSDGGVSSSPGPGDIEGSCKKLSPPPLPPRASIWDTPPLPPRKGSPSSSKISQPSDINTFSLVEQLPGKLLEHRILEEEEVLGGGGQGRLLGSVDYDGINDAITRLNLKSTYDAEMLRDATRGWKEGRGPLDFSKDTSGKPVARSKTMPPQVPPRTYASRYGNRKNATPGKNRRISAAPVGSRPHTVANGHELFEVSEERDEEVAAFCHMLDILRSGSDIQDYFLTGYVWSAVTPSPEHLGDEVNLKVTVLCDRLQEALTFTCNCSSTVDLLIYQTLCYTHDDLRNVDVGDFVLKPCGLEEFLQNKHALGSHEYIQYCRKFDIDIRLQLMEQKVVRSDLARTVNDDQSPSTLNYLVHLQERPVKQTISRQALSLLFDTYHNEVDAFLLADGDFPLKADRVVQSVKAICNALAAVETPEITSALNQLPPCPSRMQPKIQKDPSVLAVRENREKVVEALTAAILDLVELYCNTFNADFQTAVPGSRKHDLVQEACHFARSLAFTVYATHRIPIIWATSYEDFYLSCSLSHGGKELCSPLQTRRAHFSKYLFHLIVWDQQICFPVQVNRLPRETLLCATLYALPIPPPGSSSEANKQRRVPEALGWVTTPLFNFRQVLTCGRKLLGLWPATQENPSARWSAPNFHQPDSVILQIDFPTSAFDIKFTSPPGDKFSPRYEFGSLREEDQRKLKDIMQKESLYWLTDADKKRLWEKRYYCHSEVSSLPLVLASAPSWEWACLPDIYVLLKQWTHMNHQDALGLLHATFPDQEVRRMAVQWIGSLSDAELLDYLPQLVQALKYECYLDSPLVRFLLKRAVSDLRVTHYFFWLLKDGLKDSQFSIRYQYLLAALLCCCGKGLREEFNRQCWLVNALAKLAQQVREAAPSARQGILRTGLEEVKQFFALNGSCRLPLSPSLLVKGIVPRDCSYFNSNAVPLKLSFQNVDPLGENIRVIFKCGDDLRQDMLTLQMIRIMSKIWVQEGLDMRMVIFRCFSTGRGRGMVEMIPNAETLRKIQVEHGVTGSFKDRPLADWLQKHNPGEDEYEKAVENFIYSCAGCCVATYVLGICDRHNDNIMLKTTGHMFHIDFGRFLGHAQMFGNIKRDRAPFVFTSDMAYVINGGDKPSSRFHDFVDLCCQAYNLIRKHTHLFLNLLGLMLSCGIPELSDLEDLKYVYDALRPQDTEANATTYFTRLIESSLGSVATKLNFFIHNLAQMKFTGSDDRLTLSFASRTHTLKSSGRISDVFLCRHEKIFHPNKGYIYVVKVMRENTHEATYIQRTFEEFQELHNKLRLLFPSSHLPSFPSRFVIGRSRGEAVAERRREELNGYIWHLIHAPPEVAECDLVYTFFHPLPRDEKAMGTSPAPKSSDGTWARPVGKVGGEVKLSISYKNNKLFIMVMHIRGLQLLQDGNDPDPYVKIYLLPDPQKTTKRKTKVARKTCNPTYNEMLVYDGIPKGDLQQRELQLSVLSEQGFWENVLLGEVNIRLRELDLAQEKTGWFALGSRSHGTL

- IC50: 1500 nM
Substance: PITCOIN2
